Results: patent US20100216706A1, “Ghrelin Protects Substantia Nigra Dopamine Neurons” (priority 2007, published 2010)
No end group written: not given here. *: point of attachment. Octanoyl = CCCCCCCC(=O)*

Experiments:
[1] = system: midbrain (SN-VTA) mitochondria; assay: Mitochondrial respiration in midbrain of ghrelin-treated rats (Clark-type oxygen electrode); type: in vivo; details: 30 nmol IP, 3 hours
Method: Mitochondrial respiration: The ability of ghrelin to promote mitochondrial respiration was examined in mitochondria isolated from midbrain of ghrelin-treated rats (30 nmol) three hours after injection. Rats were used as the mitochondrial yield after isolation is much higher than the yield from mice. Mitochondrial respiration was also examined in the pooled midbrain of UCP2 ko and wt mice (3 pooled brains), 3 hours after ghrelin injection (IP 30 nmol).
Mitochondria were pooled from the SN-VTA (4 animals=1, total n=4) and isolated by differential centrifugation. Because of the size of the tissue dissected, it was impossible to solely isolate only the SNc, and as such the results are reported as SN-VTA. Briefly, the SN-VTA was rapidly dissected and homogenized in isolation buffer (215 mM Mannitol, 75 mM sucrose, 0.1% fatty acid free BSA, 20 mM Hepes, 1 mM EGTA, pH adjusted to 7.2 with KOH). The homogenate was spun at 1300×g for 3 minutes. The supernatant was removed, and the pellet was resuspended with isolation buffer and spun again at 1300×g for 3 minutes. The 2 sets of supernatant from each sample were topped off with isolation buffer and spun at 13000×g for 10 minutes. The supernatant was discarded, and this step was repeated. After this second spin at 13000×g, the supernatant was discarded, and the pellets were resuspended with isolation buffer without EGTA and spun at 10000×g for 10 minutes. The final mitochondrial pellet was resuspended with 50 μl of isolation buffer without EGTA. Protein concentrations were determined with a BCA protein assay kit (Pierce, Rockford, Ill., USA).
Mitochondrial respirations were assessed using a Clark-type oxygen electrode (Hansatech Instruments, Norfolk, England) at 37° C. with pyruvate and malate (5 mM and 2.5 mM) as oxidative substrates in respiration buffer (215 mM Mannitol, 75 mM sucrose, 0.1% fatty acid free BSA, 20 mM Hepes, 2 mM MgC1, 2.5 mM KH2PO4, pH adjusted to 7.2 with KOH). Following the addition of ADP and oligomycin, UCP-mediated proton conductance was measured as increased fatty acid-induced respiration (Echtay et al., 2002), which was then compared to state 4 respiration induced by oligomycin, an inhibitor of H^+ transporting ATP synthase.
To determine whether ghrelin influences mitochondrial metabolism in the SNpc, mitochondrial respiration was measured in isolated […] from the midbrain of ghrelin-treated wild-type rats.
Ghrelin was administered intraperitoneally (30 nmol) and food was removed for the three hours injection period prior to sacrifice as ingested calorie load and the postprandial increase in glucose and insulin are known to reduce ghrelin effectiveness (Callahan et al., 2004, J Clin Endocrinol Metab 89: 1319-24; Cummings et al., 2006, Physiol Behav 89: 71-84). […] Subsequent blocking of the ATP synthase with oligomycin produced greater basal uncoupling after ghrelin (saline 31.4±1.4 vs ghrelin 50.4±1.5, p<0.0001; FIG. 4A). Palmitate (free fatty-acid) induced respiration was also elevated in ghrelin-treated rats (saline 125.0±3.8 vs ghrelin 185.3±9.3, p<0.001; FIG. 4A). Finally, ghrelin increased FCCP-driven respiration, an index of total uncoupling capacity of the inner mitochondrial membrane (FIG. 4A).

[2] = system: striatal dopamine; assay: Striatal dopamine after MPTP (HPLC); type: in vivo, mice; details: ghrelin 14 days
Method: Control animals were given saline. Animals were sacrificed and perfused 7 days later and processed for immunohistochemistry or HPLC for dopamine (DA) and metabolites. n=8-10 for ghrelin wt and ko mice; n=6 for GHSR wt/wt, homo/wt and homo/TG.
The samples were subsequently thawed in 0.4 ml of chilled 0.1 M perchloric acid and sonicated. Aliquots were taken for protein quantification using a spectrophotometric assay. Other aliquots were centrifuged, and DA levels were measured in supernatants by high pressure liquid chromatography (HPLC) with electrochemical detection. Concentrations of DA and metabolites were expressed as ng/mg protein (mean±SEM).
The observation that ghrelin promotes SNpc DA neuronal function, mitochondrial respiration and number raises the possibility that ghrelin may protect nigrostriatal dopaminergic system during increased cellular stress. […] In brief, mice were treated with daily IP injections of exogenous ghrelin (10 nmols) or saline for 14 days. Mice were injected immediately before the dark phase, and food was removed overnight since calorie intake and postprandial increases in glucose and insulin can suppress the action of ghrelin (Cummings et al., 2006, Physiol Behav 89: 71-84). Both ghrelin and saline treated mice were given 3 grams of standard chow the following morning at 9 am. […] After the subsequent 7 days of treatment (saline or ghrelin), TH immunoreactive neurons were counted blind by two independent researchers using the non-biased optical fractionator on the stereology program, Stereoinvestigator.

[3] = system: tyrosine hydroxylase (TH) mRNA; assay: TH mRNA expression in the midbrain (real-time PCR); type: in vivo; details: three hours after ghrelin injection (10 nmols), wild-type mice; saline 1.03±0.15
Method: Real-time PCR: RNA was extracted from the midbrain of 8 ghrelin-treated mice or 8 saline-treated mice using TRIzol® (Invitrogen, Carlsbad, Calif.) according to the manufacturer's instructions. cDNA was synthesized using the First-Strand cDNA synthesis kit (Amersham Biosciences), using a total of 3 μg of total RNA in 15 μl of total volume. Real-time PCR analysis of TH mRNA (SEQ ID NO. 4: 5′ […] 3′; SEQ ID NO. 5: 5′ […] 3′) was performed using iQ SYBR green supermix (Bio-Rad) and […] of each primer. Primers for 18S were used as controls. Measurements were performed on an iCycler (Bio-Rad).
Tyrosine hydroxylase (TH) is the rate limiting enzyme of dopamine biosynthesis. An experiment was performed to examine whether ghrelin alters TH mRNA expression in the midbrain.

[4] = system: SNpc DA neurons mitochondria; assay: Mitochondria number in SNpc DA perikarya (electron microscopy); type: in vivo, mice
Source text: Mitochondria number: Animals were perfused and their brains were processed for TH immunolabeling for electron microscopic examination. Ultrathin sections were cut on a Leica ultra microtome, collected on Formvar-coated single-slot grids and analyzed with a Tecnai 12 Biotwin (FEI Company) electron microscope. Mitochondria were counted blindly from randomly selected sections, and Scion Image was used to normalize cytoplasmic area so that mitochondrial number per cell is expressed in square micrometers.
Given that ghrelin induces mitochondrial respiration as described above, an experiment was performed to test whether ghrelin could also alter mitochondrial number in the SNpc DA perikarya. […]
Therefore, an experiment was performed to test whether ghrelin increases mitochondrial number in the SNpc dopamine neurons. […] In line with this, UCP2 ko mice show reduced mitochondrial number in the SNpc dopamine neurons, which predisposes them to environmental toxins (Andrews et al., 2005, J Neurosci 25:184-191). Furthermore, mitochondrial dysfunction lies at the very heart of Parkinson's disease (Lin et al., 2006, Nature 443:787-795).

## ghrelin (GSS(Octanoyl)FLSPEHQRVQQRKESKKPPAKLQPR; listed as Homo sapiens) [28 amino acid acyl-peptide esterified with octanoic acid on Ser3; endogenous ligand of GHSR]
[1]
  FCCP-driven respiration: increased
[1]; saline 31.4±1.4
  Basal uncoupling after oligomycin: 50.4±1.5
[1]; saline 33.5±2.1
  Mitochondrial respiration after pyruvate and malate: 49.5±1.9
[1]; saline 125.0±3.8
  Palmitate induced respiration: 185.3±9.3
[1]; saline 128.3±7.5
  Mitochondrial respiration after ADP: 185.2±17.7
[2]; MPTP on day 7
  Loss of striatal dopamine vs controls, ghr/MPTP: 45%
  Striatal dopamine concentration, ghr/MPTP: 78.4±8.8 ng/mg protein
[2]; saline on day 7, sal/sal 147.4±10.2
  Striatal dopamine concentration, ghr/sal: 141.8±7.5 ng/mg protein
[3]
  TH mRNA expression in the midbrain: 2.86±0.46
[4]; mice, three hours after ghrelin injection, saline 0.46±0.03
  Mitochondrial number in DA perikarya of the SNpc: 0.62±0.03 μm^2
[4]; two hours after ghrelin injection, saline 0.45±0.03
  Mitochondrial number in SNpc dopamine neurons, UCP2 ko mice: 0.39±0.03 μm^2
[4]; two hours after ghrelin injection, saline 0.46±0.03
  Mitochondrial number in SNpc dopamine neurons, UCP2 wt mice: 0.62±0.03 μm^2
